Measurements: US10485236B2, “Triazole derivatives, intermediates thereof and their use as fungicides” (Bayer CropScience Aktiengesellschaft, priority 2015, dated 2019)

Tests used:
[1] = Measurement of LogP values by HPLC on reversed phase columns (EEC directive 79/831 Annex V.A8); assay type: physicochemical; settings: reversed phase HPLC column, method [a]: LC-UV, acidic range, 0.1% formic acid in water and acetonitrile as eluent
Outline: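 Calibrated with straight-chain alkan-2-ones (3–16 carbons) of known LogP, using retention times with linear interpolation between successive alkanones. Where one method gives several LogP values, all are listed, joined by "+". Lambda-max taken from UV spectra (200–400 nm) at chromatographic peak maxima.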

[2] = system: Botrytis cinerea; assay: Example A: in vivo preventive test on Botrytis cinerea (grey mould), gherkin; settings: gherkin plants, preventive spray, evaluated 4 to 5 days after inoculation, read-out: efficacy
Description: Example A: In Vivo Preventive Test on Botrytis cinerea (Grey Mould) [table] The active ingredients are made soluble and homogenized in a mixture of Dimethyl sulfoxide/Acetone//Tween® 80 and then diluted in water to the desired concentration. The young plants of gherkin are treated by spraying the active ingredient prepared as described above. Control plants are treated only with an aqueous solution of Acetone/Dimethyl sulfoxide/Tween® 80. After 24 hours, the plants are contaminated by spraying the leaves with an aqueous suspension of Botrytis cinerea spores. The contaminated gherkin plants are incubated for 4 to 5 days at 17° C. and at 90% relative humidity. The test is evaluated 4 to 5 days after the inoculation. 0% means an efficacy which corresponds to that of the control plants while an efficacy of 100% means that no disease is observed.

[3] = system: Venturia inaequalis; assay: Example H: in vivo preventive test on Venturia test (apples); settings: 240 h, 100 ppm of active ingredient, preventive spray, evaluated 10 days after inoculation, read-out: efficacy
Description: Example H: In Vivo Preventive Test on Venturia Test (Apples) [table] To produce a suitable preparation of active compound, 1 part by weight of active compound is mixed with the stated amounts of solvent and emulsifier, and the concentrate is diluted with water to the desired concentration. To test for preventive activity, young plants are sprayed with the preparation of active compound at the stated rate of application. After the spray coating has dried on, the plants are inoculated with an aqueous conidia suspension of the causal agent of apple scab (Venturia inaequalis) and then remain for 1 day in an incubation cabinet at approximately 20° C. and a relative atmospheric humidity of 100%. The plants are then placed in a greenhouse at approximately 21° C. and a relative atmospheric humidity of approximately 90%. The test is evaluated 10 days after the inoculation. 0% means an efficacy which corresponds to that of the untreated control, while an efficacy of 100% means that no disease is observed.

[4] = system: Blumeria graminis f.sp. hordei; assay: Example I: in vivo preventive Blumeria test (barley); settings: 168 h, 500 ppm of active ingredient, preventive spray, evaluated 7 days after inoculation, read-out: efficacy
Description: Example I: In Vivo Preventive Blumeria Test (Barley) [table] To produce a suitable preparation of active compound, 1 part by weight of active compound or active compound combination is mixed with the stated amounts of solvent and emulsifier, and the concentrate is diluted with water to the desired concentration. To test for preventive activity, young plants are sprayed with the preparation of active compound or active compound combination at the stated rate of application. After the spray coating has been dried, the plants are dusted with spores of Blumeria graminis f.sp. hordei. The plants are placed in the greenhouse at a temperature of approximately 18° C. and a relative atmospheric humidity of approximately 80% to promote the development of mildew pustules. The test is evaluated 7 days after the inoculation. 0% means an efficacy which corresponds to that of the untreated control, while an efficacy of 100% means that no disease is observed.

[5] = system: Leptosphaeria nodorum; assay: Example J: in vivo preventive Leptosphaeria nodorum test (wheat); settings: Parastagonospora nodorum, 192 h, 500 ppm of active ingredient, preventive spray, evaluated 8 days after inoculation, read-out: efficacy
Description: Example J: In Vivo Preventive Leptosphaeria nodorum Test (Wheat) [table] To produce a suitable preparation of active compound, 1 part by weight of active compound or active compound combination is mixed with the stated amounts of solvent and emulsifier, and the concentrate is diluted with water to the desired concentration. To test for preventive activity, young plants are sprayed with the preparation of active compound or active compound combination at the stated rate of application. After the spray coating has been dried, the plants are sprayed with a spore suspension of Leptosphaeria nodorum. The plants remain for 48 hours in an incubation cabinet at approximately 20° C. and a relative atmospheric humidity of approximately 100%. The plants are placed in the greenhouse at a temperature of approximately 25° C. and a relative atmospheric humidity of approximately 80%. The test is evaluated 8 days after the inoculation. 0% means an efficacy which corresponds to that of the untreated control, while an efficacy of 100% means that no disease is observed.

[6] = system: Septoria tritici; assay: Example L: in vivo preventive Septoria tritici test (wheat); settings: Zymoseptoria tritici, 504 h, 500 ppm of active ingredient, preventive spray, evaluated 21 days after inoculation, read-out: efficacy
Description: Example L: In Vivo Preventive Septoria tritici Test (Wheat) [table] To produce a suitable preparation of active compound, 1 part by weight of active compound or active compound combination is mixed with the stated amounts of solvent and emulsifier, and the concentrate is diluted with water to the desired concentration. To test for preventive activity, young plants are sprayed with the preparation of active compound or active compound combination at the stated rate of application. After the spray coating has been dried, the plants are sprayed with a spore suspension of Septoria tritici. The plants remain for 48 hours in an incubation cabinet at approximately 20° C. and a relative atmospheric humidity of approximately 100% and afterwards for 60 hours at approximately 15° C. in a translucent incubation cabinet at a relative atmospheric humidity of approximately 100%. The plants are placed in the greenhouse at a temperature of approximately 15° C. and a relative atmospheric humidity of approximately 80%. The test is evaluated 21 days after the inoculation. 0% means an efficacy which corresponds to that of the untreated control, while an efficacy of 100% means that no disease is observed.

[7] = system: Sphaerotheca fuliginea; assay: Example M: in vivo preventive test on Sphaerotheca (cucumbers); comparison of phenoxy-pyridyl compounds vs. known phenoxy-phenyl compounds; settings: Podosphaera fuliginea, 168 h, rate of application 10 ppm, evaluated 7 days after inoculation, read-out: Efficacy in %
Description: Example M: In Vivo Preventive Test on Sphaerotheca (Cucumbers); Comparison of Phenoxy-pyridyl Compounds According to the Invention Vs. Known Phenoxy-phenyl Compounds [table] To produce a suitable preparation of active compound, 1 part by weight of active compound is mixed with the above stated amounts of solvent and emulsifier, and the concentrate is diluted with water to the desired concentration. To test for preventive activity, young plants are sprayed with the preparation of active compound at the stated rate of application. After the spray coating has dried on, the plants are inoculated with an aqueous spore suspension of Sphaerotheca fuliginea. The plants are then placed in a greenhouse at approximately 23° C. and a relative atmospheric humidity of approximately 70%. The test is evaluated 7 days after the inoculation. 0% means an efficacy which corresponds to that of the untreated control, while an efficacy of 100% means that no disease is observed. [table]

chromatographic logP [1] | SMILES | pest or weed control [2] [%] | pest or weed control at 100 ppm [3] [%] | pest or weed control at 500 ppm [4] [%] | pest or weed control at 500 ppm [5] [%] | pest or weed control at 500 ppm [6] [%] | pest or weed control at 10 ppm [7] [%]
2.84 | C[C@@](O)(Cn1cncn1)c1cnc(Oc2ccc(Cl)cc2)cc1C(F)(F)F [I.45] | 90 to 100 | 90 to 100 | 90 to 100 | 90 to 100 | 90 to 100 | 99
2.73 | Cc1ccc(Oc2ccc(C(O)Cn3cncn3)c(Cl)n2)cc1Cl (centres unmarked) [I.16] | 90 to 100 | 90 to 100 |  |  |  | 77
3.17 | CC(O)(Cn1cncn1)c1ccc(Oc2ccc(S(F)(F)(F)(F)F)cc2)nc1Cl (centres unmarked) [I.35] |  | 90 to 100 | 90 to 100 | 80 to 89 | 90 to 100 | 100
3.26 | OC(Cn1cncn1)(c1ccc(Oc2ccc(Cl)cc2)nc1C(F)(F)F)C1CC1 (centres unmarked) [I.91, 1-[6-(4-chlorophenoxy)-2-(trifluoromethyl)-3-pyridyl]-1-cyclopropyl-2-(1,2,4-triazol-1-yl)ethanol] | 90 to 100 | 90 to 100 | 90 to 100 |  | 80 to 89 | 

SMILES | chromatographic logP [1] | pest or weed control [2] [%] | pest or weed control at 100 ppm [3] [%] | pest or weed control at 500 ppm [4] [%] | pest or weed control at 500 ppm [5] [%] | pest or weed control at 500 ppm [6] [%] | pest or weed control at 10 ppm [7] [%]
OC(Cn1cncn1)c1cnc(Oc2ccc(S(F)(F)(F)(F)F)cc2)cc1C(F)(F)F (centres unmarked) [I.36] | 3.15 |  | 90 to 100 | 90 to 100 | 90 to 100 | 90 to 100 | 100
OC(Cn1cncn1)c1cnc(Oc2ccc(C(F)(F)F)cc2)cc1C(F)(F)F (centres unmarked) [I.47] | 2.84 | 80 to 89 | 90 to 100 | 90 to 100 | 90 to 100 | 90 to 100 | 100
